The source made the active and inactive calls. For most assays here, no stated cut-off is given here; in the data, actives have a measured Kd and inactives only a lower limit.

Consider eleven compounds from ChEMBL document CHEMBL3991601, “The target landscape of clinical kinase drugs” (Science, 2017).

Test [1] addresses T1, Peroxisomal acyl-coenzyme A oxidase 1 (Homo sapiens, UniProt Q15067).
T1 sequence (Q15067 whole entry): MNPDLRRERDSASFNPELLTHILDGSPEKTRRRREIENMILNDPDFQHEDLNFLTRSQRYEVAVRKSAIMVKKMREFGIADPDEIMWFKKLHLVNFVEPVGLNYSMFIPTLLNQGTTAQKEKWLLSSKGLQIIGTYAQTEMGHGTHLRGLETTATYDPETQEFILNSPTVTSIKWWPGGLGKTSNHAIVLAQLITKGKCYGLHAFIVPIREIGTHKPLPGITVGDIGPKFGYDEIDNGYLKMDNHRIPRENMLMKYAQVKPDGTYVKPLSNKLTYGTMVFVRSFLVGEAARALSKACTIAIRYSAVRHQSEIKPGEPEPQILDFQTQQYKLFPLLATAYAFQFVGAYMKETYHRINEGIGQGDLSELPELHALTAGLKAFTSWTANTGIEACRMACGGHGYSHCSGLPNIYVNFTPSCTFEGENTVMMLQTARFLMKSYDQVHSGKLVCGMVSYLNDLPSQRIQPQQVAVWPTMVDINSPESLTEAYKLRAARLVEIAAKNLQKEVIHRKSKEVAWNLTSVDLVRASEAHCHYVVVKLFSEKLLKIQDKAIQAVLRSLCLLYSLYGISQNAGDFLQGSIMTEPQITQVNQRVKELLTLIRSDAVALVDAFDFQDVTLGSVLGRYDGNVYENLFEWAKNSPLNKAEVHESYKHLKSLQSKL

In test [2] the target is T2, Activin receptor type-1B (Homo sapiens, UniProt P36896).
T2 sequence (P36896 whole entry): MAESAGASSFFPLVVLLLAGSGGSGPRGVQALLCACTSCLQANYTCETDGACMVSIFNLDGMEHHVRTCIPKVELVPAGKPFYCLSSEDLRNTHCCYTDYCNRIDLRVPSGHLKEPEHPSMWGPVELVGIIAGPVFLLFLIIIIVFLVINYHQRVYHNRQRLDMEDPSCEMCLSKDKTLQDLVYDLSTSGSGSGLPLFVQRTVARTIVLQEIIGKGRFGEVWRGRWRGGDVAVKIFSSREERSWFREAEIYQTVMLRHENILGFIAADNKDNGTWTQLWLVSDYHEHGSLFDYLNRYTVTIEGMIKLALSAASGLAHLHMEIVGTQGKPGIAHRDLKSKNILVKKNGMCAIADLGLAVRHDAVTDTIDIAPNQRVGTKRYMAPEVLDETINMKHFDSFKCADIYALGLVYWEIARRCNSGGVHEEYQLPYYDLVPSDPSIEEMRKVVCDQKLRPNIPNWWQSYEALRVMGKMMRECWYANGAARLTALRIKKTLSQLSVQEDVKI

For test [3], the target named is Cyclin-dependent kinase 5 (Homo sapiens, UniProt Q00535).
Chain of Cyclin-dependent kinase 5 (Q00535 whole entry): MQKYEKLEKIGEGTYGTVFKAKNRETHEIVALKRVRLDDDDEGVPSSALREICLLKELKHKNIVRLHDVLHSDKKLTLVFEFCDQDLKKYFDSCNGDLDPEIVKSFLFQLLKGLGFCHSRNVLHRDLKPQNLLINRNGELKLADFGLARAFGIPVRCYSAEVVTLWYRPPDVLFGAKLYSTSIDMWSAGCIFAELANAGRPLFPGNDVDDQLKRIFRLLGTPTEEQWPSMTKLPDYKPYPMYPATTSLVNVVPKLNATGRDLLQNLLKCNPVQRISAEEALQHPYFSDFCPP
The target in test [4] is Serine/threonine-protein kinase/endoribonuclease IRE2 (Homo sapiens, UniProt Q76MJ5).
Chain of Serine/threonine-protein kinase/endoribonuclease IRE2 (Q76MJ5 whole entry): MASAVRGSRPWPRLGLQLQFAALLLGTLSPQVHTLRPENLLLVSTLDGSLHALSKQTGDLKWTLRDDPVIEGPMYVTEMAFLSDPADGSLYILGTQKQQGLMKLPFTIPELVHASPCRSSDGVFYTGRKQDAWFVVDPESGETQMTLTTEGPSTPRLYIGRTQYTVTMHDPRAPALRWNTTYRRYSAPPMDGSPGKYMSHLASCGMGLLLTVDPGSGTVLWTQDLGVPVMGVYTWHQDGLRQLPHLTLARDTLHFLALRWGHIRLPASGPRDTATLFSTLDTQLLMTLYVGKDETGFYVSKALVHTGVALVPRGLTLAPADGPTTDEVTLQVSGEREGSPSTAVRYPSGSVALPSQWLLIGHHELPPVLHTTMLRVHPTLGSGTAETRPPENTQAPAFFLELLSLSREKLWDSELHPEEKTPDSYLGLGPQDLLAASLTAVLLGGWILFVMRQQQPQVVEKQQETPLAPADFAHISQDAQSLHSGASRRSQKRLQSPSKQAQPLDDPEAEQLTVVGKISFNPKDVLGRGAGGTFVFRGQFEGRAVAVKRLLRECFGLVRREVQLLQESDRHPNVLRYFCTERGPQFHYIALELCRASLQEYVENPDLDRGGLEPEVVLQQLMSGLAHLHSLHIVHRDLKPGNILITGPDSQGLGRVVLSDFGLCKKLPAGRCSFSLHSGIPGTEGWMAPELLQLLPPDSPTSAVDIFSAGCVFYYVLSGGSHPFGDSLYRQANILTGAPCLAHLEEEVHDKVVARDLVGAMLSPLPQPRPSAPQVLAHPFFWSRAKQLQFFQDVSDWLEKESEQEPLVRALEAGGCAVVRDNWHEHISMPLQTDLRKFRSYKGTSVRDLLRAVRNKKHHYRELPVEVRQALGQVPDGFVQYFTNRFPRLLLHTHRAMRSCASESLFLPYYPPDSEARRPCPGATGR
The target in test [5] is T3, Inhibitor of nuclear factor kappa-B kinase subunit epsilon (Homo sapiens, UniProt Q14164).
T3 sequence (Q14164 whole entry): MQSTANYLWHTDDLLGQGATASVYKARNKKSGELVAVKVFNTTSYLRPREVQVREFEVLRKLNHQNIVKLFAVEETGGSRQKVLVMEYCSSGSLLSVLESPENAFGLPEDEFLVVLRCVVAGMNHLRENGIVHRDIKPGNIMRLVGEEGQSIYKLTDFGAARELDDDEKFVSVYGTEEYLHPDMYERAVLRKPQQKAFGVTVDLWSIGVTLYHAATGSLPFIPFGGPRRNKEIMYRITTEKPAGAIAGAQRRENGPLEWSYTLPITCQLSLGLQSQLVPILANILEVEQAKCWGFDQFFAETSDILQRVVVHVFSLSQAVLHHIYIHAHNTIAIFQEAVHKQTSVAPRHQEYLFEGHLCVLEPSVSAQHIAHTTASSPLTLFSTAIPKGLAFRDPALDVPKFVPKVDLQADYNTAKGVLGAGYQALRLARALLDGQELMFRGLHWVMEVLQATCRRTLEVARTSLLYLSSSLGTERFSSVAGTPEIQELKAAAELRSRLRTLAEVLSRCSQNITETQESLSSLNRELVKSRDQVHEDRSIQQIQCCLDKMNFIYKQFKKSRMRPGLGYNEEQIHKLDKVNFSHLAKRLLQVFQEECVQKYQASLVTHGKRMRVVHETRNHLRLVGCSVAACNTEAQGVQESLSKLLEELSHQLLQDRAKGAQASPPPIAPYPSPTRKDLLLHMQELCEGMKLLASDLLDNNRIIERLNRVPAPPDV

Test [6] has as its target T4, Interleukin-1 receptor-associated kinase 4 (Homo sapiens, UniProt Q9NWZ3).
T4 sequence (Q9NWZ3 whole entry): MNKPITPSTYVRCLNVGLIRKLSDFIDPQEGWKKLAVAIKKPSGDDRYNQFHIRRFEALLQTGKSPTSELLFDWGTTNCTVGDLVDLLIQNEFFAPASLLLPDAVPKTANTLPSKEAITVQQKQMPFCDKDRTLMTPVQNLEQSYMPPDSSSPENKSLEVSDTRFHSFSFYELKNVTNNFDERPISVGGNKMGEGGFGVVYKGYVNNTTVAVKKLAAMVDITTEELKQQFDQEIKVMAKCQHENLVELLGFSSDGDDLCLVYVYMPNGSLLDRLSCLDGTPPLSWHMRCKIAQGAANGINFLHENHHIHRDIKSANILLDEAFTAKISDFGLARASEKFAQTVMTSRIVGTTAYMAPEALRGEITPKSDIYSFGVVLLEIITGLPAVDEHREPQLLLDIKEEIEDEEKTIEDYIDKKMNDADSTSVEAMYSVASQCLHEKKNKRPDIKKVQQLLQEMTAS

Test [7] addresses Mitogen-activated protein kinase 10 (Homo sapiens, UniProt P53779).
Test [8] has as its target Mitogen-activated protein kinase 9 (Homo sapiens, UniProt P45984).
The target in test [9] is Myosin-14 (Homo sapiens, UniProt Q7Z406).
Chain of Myosin-14 (Q7Z406 whole entry): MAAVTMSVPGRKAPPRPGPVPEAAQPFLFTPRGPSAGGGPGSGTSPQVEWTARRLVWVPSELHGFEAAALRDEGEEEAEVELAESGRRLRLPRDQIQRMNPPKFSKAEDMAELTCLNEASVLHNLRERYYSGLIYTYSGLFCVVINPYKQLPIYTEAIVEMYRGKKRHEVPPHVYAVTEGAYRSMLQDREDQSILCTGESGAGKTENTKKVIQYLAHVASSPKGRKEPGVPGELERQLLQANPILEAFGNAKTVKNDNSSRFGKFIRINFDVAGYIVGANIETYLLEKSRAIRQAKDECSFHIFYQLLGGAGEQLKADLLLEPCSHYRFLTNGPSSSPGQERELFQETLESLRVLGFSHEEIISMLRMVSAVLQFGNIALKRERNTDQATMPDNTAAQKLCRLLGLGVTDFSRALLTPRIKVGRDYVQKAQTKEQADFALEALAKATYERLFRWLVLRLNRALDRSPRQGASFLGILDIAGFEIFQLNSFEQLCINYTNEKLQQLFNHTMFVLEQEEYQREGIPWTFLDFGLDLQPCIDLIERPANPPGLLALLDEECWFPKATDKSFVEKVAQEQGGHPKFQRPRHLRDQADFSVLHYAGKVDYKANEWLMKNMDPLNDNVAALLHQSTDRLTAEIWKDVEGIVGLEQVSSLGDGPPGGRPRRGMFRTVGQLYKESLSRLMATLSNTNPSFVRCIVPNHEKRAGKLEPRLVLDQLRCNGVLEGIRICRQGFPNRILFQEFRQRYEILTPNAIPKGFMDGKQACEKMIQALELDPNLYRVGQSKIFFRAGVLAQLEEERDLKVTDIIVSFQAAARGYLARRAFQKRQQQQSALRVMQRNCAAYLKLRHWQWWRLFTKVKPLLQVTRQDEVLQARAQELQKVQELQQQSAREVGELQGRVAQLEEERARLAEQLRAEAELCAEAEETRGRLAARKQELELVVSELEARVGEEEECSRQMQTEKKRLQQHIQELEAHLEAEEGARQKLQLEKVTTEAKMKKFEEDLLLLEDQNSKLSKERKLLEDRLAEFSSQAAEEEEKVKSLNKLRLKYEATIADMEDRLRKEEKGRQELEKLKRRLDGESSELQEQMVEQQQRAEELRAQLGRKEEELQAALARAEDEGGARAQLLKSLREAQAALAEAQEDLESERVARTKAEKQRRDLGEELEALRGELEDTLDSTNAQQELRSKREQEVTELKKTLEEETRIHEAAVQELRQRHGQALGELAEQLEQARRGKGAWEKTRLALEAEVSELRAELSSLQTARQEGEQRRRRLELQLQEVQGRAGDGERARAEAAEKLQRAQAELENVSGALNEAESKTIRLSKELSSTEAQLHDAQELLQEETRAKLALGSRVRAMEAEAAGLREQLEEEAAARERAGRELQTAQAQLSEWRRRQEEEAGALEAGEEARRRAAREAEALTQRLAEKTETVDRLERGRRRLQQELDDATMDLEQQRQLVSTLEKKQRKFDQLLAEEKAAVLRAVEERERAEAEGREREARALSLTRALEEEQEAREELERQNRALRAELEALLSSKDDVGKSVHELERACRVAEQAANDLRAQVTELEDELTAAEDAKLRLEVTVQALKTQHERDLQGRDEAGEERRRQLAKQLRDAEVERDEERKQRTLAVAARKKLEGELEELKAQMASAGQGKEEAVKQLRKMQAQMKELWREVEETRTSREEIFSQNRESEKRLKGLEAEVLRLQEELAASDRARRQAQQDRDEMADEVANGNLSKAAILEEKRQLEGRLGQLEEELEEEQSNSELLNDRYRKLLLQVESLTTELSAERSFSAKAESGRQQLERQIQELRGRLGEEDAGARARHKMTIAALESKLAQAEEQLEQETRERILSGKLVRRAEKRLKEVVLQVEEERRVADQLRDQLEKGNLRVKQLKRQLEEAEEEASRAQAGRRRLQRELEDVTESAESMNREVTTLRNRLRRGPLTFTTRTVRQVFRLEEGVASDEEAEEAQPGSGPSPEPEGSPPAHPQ
Test [10] has as its target Serine/threonine-protein kinase N2 (Homo sapiens, UniProt Q16513).

Chain of Serine/threonine-protein kinase N2 (Q16513 whole entry): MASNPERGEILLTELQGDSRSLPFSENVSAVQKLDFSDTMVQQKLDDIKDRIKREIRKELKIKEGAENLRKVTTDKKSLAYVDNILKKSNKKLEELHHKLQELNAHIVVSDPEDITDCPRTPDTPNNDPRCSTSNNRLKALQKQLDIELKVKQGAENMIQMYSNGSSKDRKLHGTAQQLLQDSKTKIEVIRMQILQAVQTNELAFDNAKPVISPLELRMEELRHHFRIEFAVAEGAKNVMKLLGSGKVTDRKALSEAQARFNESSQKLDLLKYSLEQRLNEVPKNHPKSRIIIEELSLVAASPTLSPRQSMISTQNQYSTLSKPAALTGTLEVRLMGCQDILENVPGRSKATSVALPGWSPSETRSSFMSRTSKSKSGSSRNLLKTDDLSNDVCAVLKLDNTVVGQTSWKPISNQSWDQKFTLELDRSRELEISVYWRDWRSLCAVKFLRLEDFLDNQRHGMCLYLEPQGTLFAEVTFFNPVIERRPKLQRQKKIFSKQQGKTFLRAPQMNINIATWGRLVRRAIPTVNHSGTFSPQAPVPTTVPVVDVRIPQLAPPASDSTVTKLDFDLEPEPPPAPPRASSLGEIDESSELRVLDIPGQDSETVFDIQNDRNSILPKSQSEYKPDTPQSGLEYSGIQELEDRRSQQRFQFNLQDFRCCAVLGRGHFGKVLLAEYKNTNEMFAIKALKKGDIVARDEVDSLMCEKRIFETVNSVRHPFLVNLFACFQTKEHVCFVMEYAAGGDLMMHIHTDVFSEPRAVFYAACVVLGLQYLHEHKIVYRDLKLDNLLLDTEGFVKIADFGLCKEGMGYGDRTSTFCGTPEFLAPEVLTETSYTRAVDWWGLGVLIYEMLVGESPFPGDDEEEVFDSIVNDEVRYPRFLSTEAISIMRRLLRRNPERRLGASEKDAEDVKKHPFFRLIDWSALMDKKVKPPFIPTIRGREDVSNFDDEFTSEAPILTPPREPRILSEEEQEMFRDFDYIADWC
Chain of Mitogen-activated protein kinase 9 (P45984 whole entry): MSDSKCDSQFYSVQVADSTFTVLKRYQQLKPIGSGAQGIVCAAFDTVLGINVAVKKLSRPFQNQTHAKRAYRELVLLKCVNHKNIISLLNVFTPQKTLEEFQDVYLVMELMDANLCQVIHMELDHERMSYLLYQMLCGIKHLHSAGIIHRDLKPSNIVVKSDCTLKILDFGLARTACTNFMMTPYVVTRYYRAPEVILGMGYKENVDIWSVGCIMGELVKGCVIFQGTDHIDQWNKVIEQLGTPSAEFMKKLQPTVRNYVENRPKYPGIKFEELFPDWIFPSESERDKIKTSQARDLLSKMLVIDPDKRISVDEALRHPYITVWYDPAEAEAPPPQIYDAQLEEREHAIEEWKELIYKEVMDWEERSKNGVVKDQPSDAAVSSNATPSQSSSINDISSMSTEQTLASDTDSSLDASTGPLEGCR
Chain of Mitogen-activated protein kinase 10 (P53779 whole entry): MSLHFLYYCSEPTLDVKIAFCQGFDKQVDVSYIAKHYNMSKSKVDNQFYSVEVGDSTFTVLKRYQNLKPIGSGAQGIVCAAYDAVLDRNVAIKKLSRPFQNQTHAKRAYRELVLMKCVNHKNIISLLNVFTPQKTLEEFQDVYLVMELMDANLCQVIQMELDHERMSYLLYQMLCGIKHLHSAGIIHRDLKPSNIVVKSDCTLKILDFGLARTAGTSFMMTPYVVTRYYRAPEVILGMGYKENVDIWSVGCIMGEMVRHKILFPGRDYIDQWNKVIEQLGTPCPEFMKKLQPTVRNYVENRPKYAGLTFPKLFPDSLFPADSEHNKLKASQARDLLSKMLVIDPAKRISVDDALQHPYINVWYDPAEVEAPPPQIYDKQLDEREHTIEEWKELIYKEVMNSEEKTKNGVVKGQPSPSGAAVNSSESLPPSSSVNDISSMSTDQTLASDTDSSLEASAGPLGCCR

Turning to `COc1cc2ncnc(Nc3ccc(F)c(Cl)c3)c2cc1NC(=O)/C=C/CN1CCCCC1` [DACOMITINIB ANHYDROUS], the Kd in test [1], in [2], in test [3], in [4], in test [5] and in test [6] was > 30 µM (inactive) each time. Moreover, the Kd in test [7], in test [8], in test [9] and in test [10] was > 30 µM (inactive) each time.

Take `COCCN1CCN(Cc2ccc(-c3n[nH]c4c3C(=O)c3c(NC(=O)NN5CCOCC5)cccc3-4)cc2)CC1` [RGB-286638]: the Kd in [1] was > 30 µM (inactive); in test [2], > 30 µM (inactive); in [3] it was 0.318 µM (active); in test [4], > 30 µM (inactive); in test [5], 1.9 µM (active); in test [6], > 30 µM (inactive). The dissociation constant Kd is 0.011 µM in [7], 0.37 µM (active) in test [8] and > 30 µM (inactive) in [10].

Regarding `O=C(NOC[C@H](O)CO)c1ccc(F)c(F)c1Nc1ccc(I)cc1F` [MIRDAMETINIB], the Kd in test [1], in test [2], in test [3], in test [4], in [5] and in [6] was > 30 µM (inactive) each time. Further, the Kd in [7], in [8], in test [9] and in test [10] was > 30 µM (inactive) each time.

As for `CNC(=O)c1cccc(-c2ccc3c(N4CCOC[C@@H]4C)nc(N4CCOC[C@@H]4C)nc3n2)c1` [VISTUSERTIB], the Kd in test [1], in [2], in test [3], in test [4], in test [5] and in [6] was > 30 µM (inactive) each time. The Kd in test [7], in [8], in [9] and in test [10] was > 30 µM (inactive) throughout.

In the case of `COc1cc2nccc(Oc3ccc(NC(=O)C4(C(=O)Nc5ccc(F)cc5)CC4)cc3)c2cc1OC` [CABOZANTINIB], the Kd in [1], in test [2], in test [3], in [4], in test [5] and in test [6] was > 30 µM (inactive) throughout. Further, the Kd in test [7], in test [8], in test [9] and in test [10] was > 30 µM (inactive) throughout.

With `Cc1cc(Nc2nc(N[C@@H](C)c3ncc(F)cn3)ncc2Cl)n[nH]1` [AZD-1480], the Kd in [1], in test [2], in test [3], in [4], in test [5] and in [6] was > 30 µM (inactive) each time. Besides, the Kd in [7], in test [8], in test [9] and in [10] was > 30 µM (inactive) in each case.

In the case of `O=C(Nc1ccc(OC(F)(F)F)cc1)c1sccc1NCc1ccnc2ccccc12` [OSI-930], the Kd in test [1], in test [2], in test [3], in test [4], in test [5] and in test [6] was > 30 µM (inactive) throughout. The Kd in test [7], in test [8], in test [9] and in test [10] was > 30 µM (inactive) in each case.

As to `COc1cccc2cc(-c3nc([C@H]4CC[C@H](C(=O)O)CC4)n4ncnc(N)c34)[nH]c12` [OSI-027], the Kd in test [1] is > 30 µM (inactive); in [2], 0.549 µM (active); in [3] it was > 30 µM (inactive); in [4] it was > 30 µM (inactive); in test [5], > 30 µM (inactive); in [6], > 30 µM (inactive). Also, the equilibrium dissociation constant (Kd) in test [7] was 1.62 µM; in test [8] it was > 30 µM (inactive); in [9], > 30 µM (inactive); in test [10], > 30 µM (inactive).

For `FC(F)(F)c1ccc(CNc2ccc(Cc3c[nH]c4ncc(Cl)cc34)cn2)cn1` [PEXIDARTINIB], the Kd in test [1], in test [2], in test [3], in test [4], in test [5] and in test [6] was > 30 µM (inactive) in each case. Also, the Kd in test [7], in [8] and in [10] was > 30 µM (inactive) in each case.

As to `CNC(=O)c1cc(COc2nnc(Nc3ccc(Cl)cc3)c3ccoc23)ccn1` [TELATINIB], the Kd in test [1], in test [2], in test [3], in test [4], in [5] and in test [6] was > 30 µM (inactive) in each case. In addition, the Kd in test [7], in test [8] and in test [10] was > 30 µM (inactive) in each case.

For `NC[C@@](O)(c1ccc(Cl)cc1)c1ccc(-c2cn[nH]c2)cc1` [AT-13148], the Kd in test [1], in [2], in [3], in test [5], in test [6] and in test [7] was > 30 µM (inactive) throughout. Further, the Kd is > 30 µM (inactive) in test [8], > 30 µM (inactive) in test [9] and 0.009 µM (active) in test [10].
